In patent US20260240792A1, “COMPOSITIONS FOR TREATING 5-HT2 CONDITIONS AND METHODS OF USING THE SAME” (Board of Supervisors of Louisiana State University and …, priority 2022, published 2026):
Entries after “also recorded” stand apart in the source; their conditions may differ.

What was measured:
rabbits [1] = experiment: Topical ocular dosing in rabbits: observation of CNS, systemic, ocular and behavioral effects, ocular tolerability; type: in vivo, rabbit; conditions: 0.01%
Experimental: Apparent Ocular Irritability • b. Induction of Inflammation • c. Reduction of Corneal Barrier Integrity • d. Dry Eye or Excessive Tearing • e. Induction of Neovascularization • f. Induction of Scleral Reddening
Parameters Assessed during 2 hour Observation Window (see, for example, FIG. 1):
Two studies were performed to determine at what dose between 0.01% and 0.1% were behavioral and/or systemic effects observed. 50 μL doses at 0.01%, 0.05%, and 0.075% per eye applied and assessments were made as indicated herein.
The application of most topical eye drops requires repeatedly dosing up to 9 times per day in order to maintain efficacy across the course of waking hours and have efficacious levels available during sleeping hours. The effects of repeated ocular dosing of R-DOI were assessed in a similar manner as described herein, with the exception that doses of 0.01% or 0.05% were applied repeatedly as outlined herein:
Animals from the acute dosing were continued through the repeated dosing study. Animals were dosed at the indicated concentration 2 times on day 1 and then dosed 4 times per day for 3 subsequent days. Doses were administered at 50 μl per eye into both eyes of the animal.
Rabbits were assessed for clinically clear eyes by slit lamp ophthalmic scoring. All eyes of all rabbits were normal.
Following balancing animals were treated with 50 μL of Control ophthalmic BSS/0.5% CMC or 0.01% Compound 1 in ophthalmic BSS/0.5% CMC.
Any behavioral changes were continuously monitored over the next 2.5 hours (FIG. 3).
We can determine if a single dose of the ocular composition of 0.01% R-DOI with 0.5% carboxymethylcellulose in ophthalmic BSS: • 1. Reproduced previous findings that R-DOI had IOP depressing effects. • 2. Produced any readily observable behavioral effects. • 3. Was tolerated by the eye without adverse ocular effects, including absence of: • a. Apparent Ocular Irritability • b. Induction of Inflammation • c. Dry Eye or Excessive Tearing • d. Induction of Scleral Reddening • 4. Reduced IOP • 5. Maintained Reduction in IOP • 6. Increased Tear Film Production
(§1) • Rabbits were assessed for clinically clear eyes by slit lamp ophthalmic scoring. All eyes of all rabbits were normal. • Each eye of each rabbit was then assessed for initial IOP by tonometer. • Each eye of each rabbit was assessed for tear film production by Schirmer's Tear Flo Strips at a 30 second interval of analysis. Tear measures were evaluated by a digital caliper to determine mm of tears collected. • Rabbits were sorted into two groups attempting to balance IOP numbers (one higher, one lower animal per group). • Following animals were treated with 50 μL of Control ophthalmic BSS/0.5% CMC or 0.01% R-DOI HCl in ophthalmic BSS/0.5% CMC. • Any apparent behavioral changes were continuously monitored over the next 2.5 hours. • IOP determinations were made at 30 minutes, 1 hour, 2 hours and 3 hours, 5 hours, 7 hours and 24 hours-eyes were examined closely for any adverse effects during these IOP measures. • 7 hours post treatment when IOP returned to control levels tear film production was assessed (see, for example, FIG. 9).

rabbits [2] = experiment: Intraocular pressure (IOP) after topical ocular dosing in rabbits; type: in vivo, rabbit
Experimental: The IOP was assessed as a component of clinical outcomes for the animals in the studies described herein. The table below represents the effect of R-DOI on IOP 2 hours after dosing with the indicated concentration of R-DOI. Eyes were individually assessed and are indicated as IOP for the right (OD) or left (OS) eye.
Each eye of each rabbit was then assessed for initial IOP by tonometer.
IOP determinations were made at 30 minutes, 1 hour, 1.5 hours and 2.5 hours-eyes were examined closely for any adverse effects during these IOP measures.
(§2) 3 days post treatment at the same time initial measures were made, IOP and tear film production were re-assessed to examine if effects were sustained post 1 treatment.
The IOP was assessed via a TonoVet rebound Tonometer. The tables herein (see, for example, FIG. 4) represent the effect of Compound 1 on IOP at time intervals within the first 2.5 hours after dosing with 0.01% Compound 1 in BSS with 0.5% CMC. Eyes were individually assessed and are indicated as IOP for the right (OD) or left (OS) eye. 3 days post treatment eyes were reassessed for IOP changes to see if the effects of treatment lasted over a prolonged period.
as §1
The IOP was assessed via a TonoVet rebound Tonometer. The tables herein (see, for example, FIGS. 10-11) represents the effect of R-DOI on IOP at the defined time intervals Eyes were individually assessed and are indicated as IOP for the right (OD) or left (OS) eye.

rabbits [3] = experiment: Tear film production by Schirmer's Tear Flo Strips in rabbits; type: in vivo, rabbit
Experimental: Each eye of each rabbit was assessed for tear film production by Schirmer's Tear Flo Strips at a 30 second interval of analysis. Tear measures were evaluated by a digital caliper to determine mm of tears collected.
as §2
(§3) Effects of Compound 1 on Tear Production: Current IOP lowering glaucoma drugs eventually have effects on tear production resulting in dry eye conditions. Further, there are additional associations between dry eye and glaucoma, with co-incidence of the two conditions quite common. […] Selective 5-HT agonists/antagonists can reverse symptoms of dry eye-a very large ophthalmic market. The effects of Compound 1 on tear film production (see, for example, FIG. 6 panels A-D) were therefore assessed by a Schirmer's Tear Flo strip and measured using a digital micrometer caliper.
as §1
as §3, with “R-DOI” for “Compound 1”, “conditions” for “conditions quite”, “production” for “production (see, for example, FIG. 6 panels A-D)”

[4] = Solubility in ophthalmic eye drop (BSS, 0.5% CMC); type: physicochemical; conditions: 0.1% (5 mg/5 mL) in BSS with 0.5% CMC, pH 7.0
Experimental: Non-Limiting, Exemplary Findings Discussed within: • The NCE Compound 1 was formulated within an ophthalmic eye drop with BSS and 0.5% carboxymethylcellulose (CMC) at percentages of 0.1% (5 mg/5 ml) and lower with a pH of 7.0.
• The R-DOI HCl was formulated within an ophthalmic eye drop with BSS and 0.5% carboxymethylcellulose (CMC) at percentages of 0.1% (5 mg/5 mL) and lower with a pH of 7.0.

[5] = tested on: TGF-Induced SMAD-mediated signaling; experiment: TGF-β induced SMAD-mediated signaling, dual luciferase reporters; type: cell-based
Normal Human Fibroblasts = experiment: TGF-β transformation of normal human fibroblasts to myofibroblasts; type: cell-based; conditions: TGF-β treated human fibroblasts
C6 glioma cells = conditions: cocktail of TNF-α and INF-γ, read-out: IC50 for block of LPS and cytokine stimulated nitrite accumulation; cited from earlier work
5-HT2A receptors = 5-HT2A receptors (Homo sapiens, UniProt P28223); conditions: cited from earlier work
Sequence of 5-HT2A receptors (P28223 whole entry): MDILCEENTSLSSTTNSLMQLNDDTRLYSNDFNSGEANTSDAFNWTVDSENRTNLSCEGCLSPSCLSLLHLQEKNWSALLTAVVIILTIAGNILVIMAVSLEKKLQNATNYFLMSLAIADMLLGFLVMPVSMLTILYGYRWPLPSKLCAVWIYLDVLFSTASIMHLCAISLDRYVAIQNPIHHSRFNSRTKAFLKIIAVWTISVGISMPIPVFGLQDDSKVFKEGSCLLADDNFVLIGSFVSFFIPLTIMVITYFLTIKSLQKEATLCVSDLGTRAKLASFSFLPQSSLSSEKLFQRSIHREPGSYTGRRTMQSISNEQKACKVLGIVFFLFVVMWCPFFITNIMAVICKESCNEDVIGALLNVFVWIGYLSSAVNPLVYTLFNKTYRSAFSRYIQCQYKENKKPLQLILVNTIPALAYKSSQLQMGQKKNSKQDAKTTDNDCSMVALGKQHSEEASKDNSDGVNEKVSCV

Question: With `COc1cc(CC(C)C)c(OC)cc1CCN` [Compound 1] as the compound, how does the “adverse events (ocular, systemic, behavioral or otherwise)” value (rabbits [1]; 50 μL per eye, both eyes, single dose) read?
Answer: The value was “No readily apparent adverse events; also recorded: No observable changes; also recorded: no adverse or abnormal events observed”.

Question: And the “acute ocular toxicity, irritability or adverse ocular reactions” value (rabbits [1]; acute single dosing)?
Answer: The value was “did not exhibit any acute ocular toxicity, irritability or adverse ocular reactions; also recorded: did not display any signs of ocular irritability”.

Question: What about the “period for which decreased intraocular pressure was sustained post administration” value (rabbits [2]; 0.01% single dose, non-diseased eye model) of the same compound?
Answer: The value was “at least 3 days”.

Question: And the “IOP across the 2.5 hour observation window” value (rabbits [2]; 0.01% single dose, 30 minutes, 1 hour, 1.5 hours, 2.5 hours)?
Answer: Its value is “decreased IOP at all points across the 2.5 hour observation window”.

Question: What about the “Return to Baseline IOP” value (rabbits [2]; post single dose administration of 0.01%) of the same compound?
Answer: Its value is “approximately 12 days”.

Question: And the “effect on intraocular pressure” value (rabbits [2]; single topical ocular dose)?
Answer: Its value is “decreased intraocular pressure with a single dose”.

Question: What about the “average increase in tear film production” value (rabbits [3]; 0.01% single dose, 2.5 h post treatment) of the same compound?
Answer: Its value is 3.4 mm.

Question: What about the “average increase of tear film” value (rabbits [3]; 0.01% single dose, 3 days post treatment) of the same compound?
Answer: The value was “approximately 1.9 mm”.

Question: And the “tear production as measured by Schirmer's test” value (rabbits [3]; topical ocular dose)?
Answer: The value was “increased tear production; also recorded: significant increase in tear production”.

Question: What about the “Solubility of the compound” value [4] of the same compound?
Answer: The value was “good with no remaining precipitates”.

Question: What does the source list for `COc1cc(CC(C)N)c(OC)cc1I` (centres unmarked) [DOI, 2,5-Dimethoxy-4-iodoamphetamine]?
Answer: TGF-Induced SMAD-mediated signaling [5]: Reduces TGF-Induced SMAD-mediated signaling; Transformation into Myofibroblasts (Normal Human Fibroblasts): Prevents Transformation into Myofibroblasts; IC50 (C6 glioma cells): 8 ± 3 nM

Question: For `O=C(c1ccc(F)cc1)C1CCN(CCn2c(=O)[nH]c3ccccc3c2=O)CC1` [ketanserin], which “selectivity for 5-HT2A receptors over 5-HT2C receptors” value (5-HT2A receptors) is on record?
Answer: Its value is ~ 20 fold.
